Assay results taken from patent publication US6200984A, “Naphtho-imidazo pyridine derivatives useful in treating central nervous system disorders” (Ortho-McNeil Pharmaceutical, Inc., priority 1998, dated 2001).
Where two headings read alike, the source gives them in different places.

Key:
[1] = molecular target: benzodiazepine site of the GABA-A receptor; assay: Benzodiazepine Receptor Binding Assay (inhibition of 3H-flunitrazepam binding); conditions: 3H-flunitrazepam ca. 3 nM
[2] = system: behavior suppressed by punishment (rat conflict); assay: Suppression of Anxiety in the Adult Male Rat (rat conflict, Vogel); type: in vivo; conditions: po
Procedure: Assay to Measure the Suppression of Anxiety in the Adult Male Rat
Male rats were deprived of water for 48 hours and were deprived of food for 24 hours prior to testing. After the first 24 hours of water deprivation, they were placed in the conflict chamber for a training period; wherein, they were allowed 200 unpunished licks from a bottle containing tap water. The experiment was run the next day. At the expected time of peak activity, the animals were placed in the chamber and allowed access to tap water. […] Their first lick initiates a 3-min test session. Subsequently,every 20th lick was punished by a 0.2-s shock delivered via the stainless-steel drinking-tube. […] The Wilcoxon rank-sum test (Mann-WhitneyU-test) was used to test for an increase (p<0.05, 1-tailed) in the median number of shocks in drug-treated groups, compared to a concurrently run vehicle-treated group. The biological assay is considered to be valid if the effects of a known anxiolytic (positive control) are detected, within the same experiment.

[3] = system: Metrazol-Induced Convulsions; assay: Suppression of Metrazol-Induced Convulsions in Adult Male Mice; type: in vivo, mice (male CD1); conditions: Mus musculus, ip, read-out: anti-metrazol ED50
Procedure: Assay to Determine the Suppression of Metrazol-Induced Convulsions in Adult Male Mice
Male CD1 mice, were fasted at least 16 hours, were divided into equal groups and test compounds or vehicle were administered parenterally. Water was not withheld except during the period of observations. […] Metrazol was dissolved in 0.9% sodium chloride solution, and its dose volume was 10 ml/kg. Animals were housed individually for observation of clonic convulsions, tonic convulsions and death for a period of 30 min. […] The biological assay was considered to be valid if the effects of a known anticonvulsant (positive control) were detected, within the same experiment. Activity was reported as percent reduction of clonic convulsions from the vehicle group.

[4] = minimum effective dose, Wilcoxon rank-sum test p<0.05, read-out: rat conflict MED
[5] = Rattus norvegicus, read-out: rat conflict MED, po, minimum effective dose, Wilcoxon rank-sum test p<0.05
[6] = mice, s.c. CD90 metrazol, clonic convulsions

| Compound | IC50 [1] | minimal effective dose [2, 4] | ED50 [3] | minimal effective dose [2, 5] | ED50 [3, 6] |
| --- | --- | --- | --- | --- | --- |
| O=C1CCN2C(=C1C(=O)Nc1ccccc1F)Nc1cc3ccccc3cc12 [Example 1, 3-oxo-1,2,3,5-tetrahydronaphtho[2',3': 4,5]imidazo[1,2-a]pyridine-4-carboxylic acid (2-fluorophenyl)amide] | 17 nM | > 10 mg/kg | 1 mg/kg | – | – |
| O=C1CCN2C(=C1C(=O)Nc1c(F)cccc1F)Nc1cc3ccccc3cc12 [Example 2, 3-oxo-1,2,3,5-tetrahydronaphtho[2',3': 4,5]imidazo[1,2-a]pyridine-4-carboxylic acid (2,6-difluorophenyl)amide] | 3.95 nM | – | – | > 10 mg/kg | 1 mg/kg |
| CCN1C2=C(C(=O)Nc3ccccc3F)C(=O)CCN2c2cc3ccccc3cc21 [Example 3, 5-ethyl-3-oxo-1,2,3,5-tetrahydronaphtho[2',3': 4,5]imidazo[1,2-a]pyridine-4-carboxylic acid (2-fluorophenyl)amide] | 0.94 nM | 10 mg/kg | – | – | < 1 mg/kg |
| CCN1C2=C(C(=O)Nc3c(F)cccc3F)C(=O)CCN2c2cc3ccccc3cc21 [Example 4, 5-ethyl-3-oxo-1,2,3,5-tetrahydronaphtho[2',3': 4,5]imidazo[1,2-a]pyridine-4-carboxylic acid (2,6-difluorophenyl)amide] | 6.87 nM | > 10 mg/kg | – | – | > 1 mg/kg |
| COCCN1C2=C(C(=O)Nc3ccccc3F)C(=O)CCN2c2cc3ccccc3cc21 [Example 5, 5-(2-methoxyethyl)-3-oxo-1,2,3,5-tetrahydronaphthol[2',3': 4,5]-imidazo[1,2-a]pyridine-4-carboxylic acid (2-fluorophenyl)amide] | 0.37 nM | 10 mg/kg | – | – | < 1 mg/kg |
| CN(CCN1C2=C(C(=O)Nc3ccccc3F)C(=O)CCN2c2cc3ccccc3cc21)Cc1ccccc1 [Example 6, 5-[2-(benzylmethylamino)ethyl)-3-oxo-1,2,3,5-tetrahydronaphtho[2',3': 4,5]imidazo[1,2-a]pyridine-4-carboxylic acid (2-fluorophenyl)amide] | 8.02 nM | – | – | > 10 mg/kg | > 1 mg/kg |
| CN(CCN1C2=C(C(=O)Nc3c(F)cccc3F)C(=O)CCN2c2cc3ccccc3cc21)Cc1ccccc1 [Example 7, 5-[2-(benzylmethylamino)ethyl)-3-oxo-1,2,3,5-tetrahydronaphtho[2',3': 4,5]imidazo[1,2-a]pyridine-4-carboxylic acid (2.6-difluorophenyl)amide] | 58 nM | > 10 mg/kg | – | – | > 1 mg/kg |
| CNCCN1C2=C(C(=O)Nc3ccccc3F)C(=O)CCN2c2cc3ccccc3cc21.Cl [Example 8, 5-[2-(methylamino)ethyl)-3-oxo-1,2,3,5-tetrahydronaphtho[2',3': 4,5]imidazo[1,2-a]pyridine-4-carboxylic acid (2-fluorophenyl)amide hydrochloride] | 7.98 nM | – | – | > 10 mg/kg | > 1 mg/kg |
| CNCCN1C2=C(C(=O)Nc3c(F)cccc3F)C(=O)CCN2c2cc3ccccc3cc21.Cl [Example 9, 5-[2-(methylamino)ethyl)-3-oxo-1,2,3,5-tetrahydronaphtho[2',3': 4,5]imidazo[1,2-a]pyridine-4-carboxylic acid (2,6-difluorophenyl)amide hydrochloride] | 75 nM | > 10 mg/kg | – | – | > 1 mg/kg |
| CCOCN1C2=C(C(=O)Nc3c(F)cccc3F)C(=O)CCN2c2cc3ccccc3cc21 [Example 10, 5-Ethoxymethyl-3-oxo-1,2,3,5-tetrahydronaphtho[2',3': 4,5]-imidazo[1,2-a]pyridine-4-carboxylic acid (2,6-difluorophenyl)amide] | 13 nM | > 10 mg/kg | – | – | > 1 mg/kg |
| O=C1CCN2C(=C1C(=O)Nc1ccccc1F)Nc1ccc3ccccc3c12 [Example 11, 3-Oxo-1,2,3,5-tetrahydronaphtho[2',1': 4,5]imidazo[1,2-a]-pyridine-4-carboxylic acid (2-fluorophenylamide)] | > 1000 nM | > 10 mg/kg | – | – | > 1 mg/kg |
| COCCN1C2=C(C(=O)Nc3ccccc3F)C(=O)CCN2c2c1ccc1ccccc21 [Example 12, 5-(2-Methoxyethyl)-3-oxo-1,2,3,5-tetrahydronaphtho[2',1': 4,5]-imidazo[1,2-a]pyridine-4-carboxylic acid (2-fluorophenylamide)] | 58 nM | > 10 mg/kg | – | – | > 1 mg/kg |
| O=C1CCN2C(=C1C(=O)Nc1ccccc1F)Nc1c2ccc2ccccc12 [Example 13, 3-Oxo-1,2,3,5-tetrahydronaphtho[1',2': 4,5]imidazo[1,2-a]pyridine-4-carboxylic acid (2-fluorophenylamide)] | 154 nM | > 10 mg/kg | – | – | > 1 mg/kg |
| O=C1CCN2C(=C1C(=O)Nc1ccccc1F)N(CC1CC1)c1cc3ccccc3cc12 [Example 14] | 0.57 nM | – | – | > 10 mg/kg | < 1 mg/kg |
| CCOCN1C2=C(C(=O)Nc3ccccc3F)C(=O)CCN2c2cc3ccccc3cc21 [Example 15] | 2.18 nM | – | – | > 10 mg/kg | < 1 mg/kg |
| CCN1C2=C(C(=O)Nc3cccs3)C(=O)CCN2c2cc3ccccc3cc21 [Example 16] | 0.7 nM | > 10 mg/kg | – | – | < 1 mg/kg |
| O=C1CCN2C(=C1C(=O)Nc1nccs1)Nc1cc3ccccc3cc12 [Example 17] | 360 nM | – | – | – | > 1 mg/kg |
| CCN1C2=C(C(=O)Nc3nccs3)C(=O)CCN2c2cc3ccccc3cc21 [Example 18] | 11.1 nM | – | – | > 10 mg/kg | < 1 mg/kg |
| COCCN1C2=C(C(=O)Nc3nccs3)C(=O)CCN2c2cc3ccccc3cc21 [Example 19] | 3.37 nM | – | – | > 10 mg/kg | < 1 mg/kg |
| O=C1CCN2C(=C1C(=O)Nc1c(F)cccc1F)Nc1c2ccc2ccccc12 [Example 20] | 2.73 nM | > 10 mg/kg | – | – | < 1 mg/kg |
| CCN1C2=C(C(=O)Nc3ccccc3F)C(=O)CCN2c2ccc3ccccc3c21 [Example 21] | 16.5 nM | > 10 mg/kg | – | – | > 1 mg/kg |
| COCCN1C2=C(C(=O)Nc3ccccc3F)C(=O)CCN2c2ccc3ccccc3c21 [Example 22] | 31.8 nM | – | – | > 10 mg/kg | > 1 mg/kg |
| O=C1CCN2C(=C1C(=O)Nc1c(F)cccc1F)Nc1c2ccc2ccccc12 [Example 23] | 17.9 nM | – | – | 10 mg/kg | – |
| COCCN1C2=C(C(=O)Nc3c(F)cccc3F)C(=O)CCN2c2ccc3ccccc3c21 [Example 24] | 0.29 nM | > 3 mg/kg | – | – | 1 mg/kg |
| CCOCCN1C2=C(C(=O)Nc3c(F)cccc3F)C(=O)CCN2c2ccc3ccccc3c21 [Example 25] | 3.72 nM | > 3 mg/kg | – | – | – |
| CCOCN1C2=C(C(=O)Nc3c(F)cccc3F)C(=O)CCN2c2ccc3ccccc3c21 [Example 26] | 10.3 nM | – | – | > 10 mg/kg | – |
